Ends that are not written are not given here. Peptide text beside a SMILES is read from it. * marks the point of attachment. Palmitoyl = CCCCCCCCCCCCCCCC(=O)*

Experimental findings from publication PMC4704863 (Angewandte Chemie (International ed. in English), 2014) are described below.

The target in assay [1] is human neuropeptide Y receptor Y4 (hY4R) (human) (UniProt P50391). The assay is described as follows: radioligand binding.
Assay [2] addresses T1, hY4R (Homo sapiens, UniProt P50391). As to the kind of experiment: Arr3–receptor interaction by BRET. The settings on record: arr3 association after 10 min. Format: cell-based.
In assay [3] the test system is Col-24 epithelial layers. The assay is described as follows: Antisecretory responses. Type of assay: cell-based, human.
In assay [4] the target is T1, hY4R. Type of assay: cell-based. The settings on record: Col-24 epithelial layers, response to 10 nM hPP after prestimulation.
In assay [5] the target is human neuropeptide Y receptor Y4 (hY4R) (human, UniProt P50391 1-375). The assay is described as follows: radioligand binding.
The mark [6] stands for this setting: Col-24 epithelial layers, 100 nM peptide.

T1 sequence (P50391 whole entry): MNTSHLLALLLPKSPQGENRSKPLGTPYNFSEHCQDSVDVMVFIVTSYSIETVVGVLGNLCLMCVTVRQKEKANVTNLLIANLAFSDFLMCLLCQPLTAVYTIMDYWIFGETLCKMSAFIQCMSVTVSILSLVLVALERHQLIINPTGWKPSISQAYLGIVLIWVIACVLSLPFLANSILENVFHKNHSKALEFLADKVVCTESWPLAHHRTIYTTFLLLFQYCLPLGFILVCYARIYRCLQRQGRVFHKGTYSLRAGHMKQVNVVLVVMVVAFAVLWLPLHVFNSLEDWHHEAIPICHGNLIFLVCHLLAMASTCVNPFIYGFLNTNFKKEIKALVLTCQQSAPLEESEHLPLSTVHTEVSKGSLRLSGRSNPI
Sequence of human neuropeptide Y receptor Y4 (hY4R) (human) (P50391 whole entry): as above
Sequence of human neuropeptide Y receptor Y4 (hY4R) (P50391 whole entry): as above

For “PEG5-modified [K^22,Q^34]hPP (4A) (peptide)”, in assay [1], the IC50 was 36.8 nM.

On to “palmitoylated [K^22,Q^34]hPP (3A) (peptide)”, for which the IC50 in assay [1] stood at 1.2 nM.

`CCCCCCCCCCCCCCCC(=O)NCCCC[C@H](NC(=O)[C@H](C)NC(=O)[C@H](Cc1ccc(O)cc1)NC(=O)[C@H](CCC(N)=O)NC(=O)[C@H](C)NC(=O)[C@H](CCSC)NC(=O)[C@H](CCC(N)=O)NC(=O)[C@H](CCC(=O)O)NC(=O)[C@@H]1CCCN1C(=O)[C@@H](NC(=O)[C@H](C)NC(=O)[C@H](CC(N)=O)NC(=O)[C@H](CC(=O)O)NC(=O)CNC(=O)[C@@H]1CCCN1C(=O)[C@H](Cc1ccc(O)cc1)NC(=O)[C@@H](NC(=O)[C@@H]1CCCN1C(=O)[C@H](CCC(=O)O)NC(=O)[C@H](CC(C)C)NC(=O)[C@@H]1CCCN1C(=O)[C@H](C)N)C(C)C)[C@@H](C)O)C(=O)N[C@@H](CC(=O)O)C(=O)N[C@@H](CC(C)C)C(=O)N[C@@H](CCCNC(=N)N)C(=O)N[C@@H](CCCNC(=N)N)C(=O)N[C@@H](Cc1ccc(O)cc1)C(=O)N[C@H](C(=O)N[C@@H](CC(N)=O)C(=O)N[C@@H](CCSC)C(=O)N[C@@H](CC(C)C)C(=O)N[C@H](C(=O)N[C@@H](CCCNC(=N)N)C(=O)N[C@@H](CCC(N)=O)C(=O)N[C@@H](CCCNC(=N)N)C(=O)N[C@@H](Cc1ccc(O)cc1)C(N)=O)[C@@H](C)O)[C@@H](C)CC` [3A] (H-APLEPVYPGDNATPEQMAQYAK(Palmitoyl)DLRRYINMLTRQRY-NH2; N-terminus and C-terminus assumed): in assay [2], the “arr3 recruitment, maximal netBRET (BRETmax)” value is “increased arr3 recruitment”. The “Concentration–response in Col-24 cells (potency and efficacy)” value in assay [3] (Col-24 cells, Isc) is “good activity and increased efficacy”. For the same molecule, in assay [3] (setting [6]), the “Isc response, time course” value is given as “prolonged reductions in Isc” and the “Onset of Isc response” value is recorded as “delayed”. The “Maximum of Isc response” value in assay [3] (Col-24 epithelial layers, 100 nM peptide, compared with 2A) is “higher maximum than the parental peptide”. In addition, the “Desensitization of hY4R after prestimulation” value in assay [4] was “concentration-dependent desensitization”.

In turn, “PEG22-modified [K^22,Q^34]hPP (5A) (peptide)” came in with an IC50 in assay [1] of 94.2 nM.

Consider “APLEPVYPGDNATPEQMAQYAKDLRRYINMLTRQRY-NH2 [2A]”, for which the “arr3 recruitment, maximal netBRET (BRETmax)” value in assay [2] is “robust arr3 recruitment”. Also, in assay [3] (setting [6]), the “Isc response, time course” value was “rapid and transient activity”; the “Time of maximum Isc effect” value is listed as “about 5 min”. Moreover, the “Desensitization of hY4R after prestimulation” value in assay [4] was “concentration-dependent desensitization”.

B1: lead peptide 2A ([Q^34]hPP core sequence, Obinepitide) (peptide)
chain: APLEPVYPGDNATPEQMAQYAKDLRRYINMLTRQRY
modifications: ends and bridges not checked
As for B1, in assay [5], the IC50 came out at 0.5 nM.
